From ChEMBL document CHEMBL1150217, “Molecular structure and activity toward DNA of baicalein, a flavone constituent of the Asian herbal medicine "Sho-saiko-to"” (J Nat Prod, 2001)
Active and inactive are the calls of the source. No cut-off for these calls is given here.

Key:
[1] = test system: Calf thymus DNA; assay: Binding affinity to calf thymus DNA assessed as intercalation by agarose gel electrophoresis; type: nucleic-acid assay; conditions: Bos taurus
[2] = test system: Human immunodeficiency virus; assay: Inhibition of HIV integrase

Activity [1]: Active | Activity [2]: Active
SMILES: O=c1cc(-c2ccccc2)oc2cc(O)c(O)c(O)c12
